Several values for one entry are separate records, joined by “and”; a condition that tells them apart may be missing. Equal entries are not always repeated.
Columns and labels:
H526 cells = assay: Clonogenic (colony formation) assay, H526; type: cell-based, human; conditions: H526, 250 nM, 5 days
Procedure: Fig. 2 NHWD-870 inhibited BRD4 phosphorylation and c-MYC expression, and suppressed cell growth. a Representative western blot analysis of p-BRD4 (s484/488), BRD4, c-MYC, and GAPDH after treatment of MDA-MB231, SUM159, A2780 ES-2, and H526 cells with JQ-1 or NHWD-870 at the indicated concentrations for 24 h. GAPDH served as the loading control. Selected from three independent experiments. b MTT assays of H526, A2780, ES-2, and MDA-MB231 cells treated with JQ-1 or NHWD-870 at the indicated concentrations for 5 days. Data are presented as mean ± SEM from three independent experiments. c, d Clonogenic assays of H526, A2780, ES-2 and MDA-MB231 cells treated with 250 nM JQ-1 or NHWD-870 for 5 days. Shown are representative images (c) and quantification of colonies (d). […] Shown are representative images (e) and quantification of relative colony sizes (f). Scale bar, 50 μm. Data are presented as mean ± SEM from five independent experiments. p values were calculated using two-tailed, unpaired t tests in this figure. **p < 0.01; ***p < 0.001. Source data are provided as a Source Data file. […]
5. Colony formation assay. Cells were seeded in 6-well plates at 3,000 cells/well […]
every week. […] Colony numbers were calculated with imageJ version

TAMs = assay: Transwell 3D co-culture of pretreated A2780 cells and TAMs, spheroid volume; type: cell-based, mouse
Procedure: A2780 tumor cells were pretreated with 100 nM NHWD-870 and then directly co-cultured with TAMs (A2780:TAMs ratio as 4:1) at the density of 1 × 10^5 total cells in a 12-well. Shown are immunofluorescent staining of Ki67 and CD68 (a) and quantification of Ki67+ and CD68− or CD68+ cells (b). Scale bar is 50 μm. […] A2780 cells (pre-treated with or without 100 nM NHWD-870 for 48 h) were seeded into the top chamber (transwell size: 0.4 μm) and TAMs (Mac, 40,000 cells per 24-well) in medium containing 2% matrigel were seeded into the bottom chamber pre-coated with Matrigel. No NHWD-870 was added to the co-culture. The upper chamber without A2780 cells was used as a control. Shown are schematics of transwell co-culture experiment (c), representative pictures of TAM spheroid (d: black/white), and quantification of spheroid volumes (e). Scale bar is 50 μm. […] Data are presented as mean ± SEM from three independent experiments. g CSF1 protein levels in supernatant of 10^6 ID8, B16, A2780, SKOV3, and A375 cells treated with DMSO or 25 nM NHWD-870 for 24 h, as measured by ELISA. […] Scale bar is 20 μm. i Quantification of CSF1 staining in DMSO or 100 nM NHWD-870 treated A2780 cells. […] Shown are representative immunofluorescent staining of CSF1 (green) and CD68 (red) (j) and quantification of CSF1 staining (k). […]

## Cc1nnn(C)c1-c1cnc2c3c4cnn(C)c4ccc3n([C@H](c3ccccc3)C3CCOCC3)c2c1 [NHWD-870]
H526 cells
  Clone Number (clonogenic assay): 75 and 84 and 92 and 65 and 76
TAMs; 100 nM, 3-D culture, Fig 5c-e
  fold decrease of the growth of TAMs: about 8 fold
TAMs; A2780 pretreated with 100 nM, 3D co-culture
  ability of A2780 to support the growth of TAMs: completely abolished the ability of A2780 to support the growth of TAMs
